We go through three molecules from patent US10138238B2, “Pesticidally active polycyclic derivatives with sulfur containing substituents” (Syngenta Participations AG, priority 2015, dated 2018).

One may read the mortality as the percentage killed.

Assay type in all cases: in vivo
The subject of experiment [1] is Diabrotica balteata (Corn Root Worm). Put plainly: Example B2: Diabrotica balteata, maize sprouts, L2 larvae. As to conditions: 96 h, application rate of 200 ppm, 4 days after infestation, read-out: effect in at least one of the two categories (mortality or growth inhibition). How it is done:
(§1) Maize sprouts placed onto an agar layer in 24-well microtiter plates were treated with aqueous test solutions prepared from 10'000 ppm DMSO stock solutions by spraying. After drying, the plates were infested with L2 larvae (6 to 10 per well). The samples were assessed for mortality and growth inhibition in comparison to untreated samples 4 days after infestation. The following compounds gave an effect of at least 80% in at least one of the two categories (mortality or growth inhibition) at an application rate of 200 ppm: P1, P2, P3, P4, P5, P6, P7, P8, P9, P10, P11, P12, P13, P14, and P15.

The test system of experiment [2] is Euschistus heros (Neotropical Brown Stink Bug). Put plainly: Example B3: Euschistus heros, soybean leaves, N2 nymphs. As to conditions: 120 h, application rate of 200 ppm, 5 days after infestation, read-out: effect in at least one of the two categories (mortality or growth inhibition). On the procedure: Soybean leaves on agar in 24-well microtiter plates were sprayed with aqueous test solutions prepared from 10'000 ppm DMSO stock solutions. After drying the leaves were infested with N2 nymphs. The samples were assessed for mortality and growth inhibition in comparison to untreated samples 5 days after infestation. The following compounds gave an effect of at least 80% in at least one of the two categories (mortality or growth inhibition) at an application rate of 200 ppm: • P1, P3, P8, P9, P10, P13, P14, and P15

For experiment [3], the system named is Plutella xylostella (Diamond Back Moth). Put plainly: Example B6: Plutella xylostella, artificial diet, L2 larvae. As to conditions: 120 h, application rate of 200 ppm, 5 days after infestation, read-out: effect in at least one of the two categories (mortality or growth inhibition). On the procedure:
(§2) 24-well microtiter plates with artificial diet were treated with aqueous test solutions prepared from 10'000 ppm DMSO stock solutions by pipetting. After drying, the plates were infested with L2 larvae (10 to 15 per well). The samples were assessed for mortality and growth inhibition in comparison to untreated samples 5 days after infestation. The following compounds gave an effect of at least 80% in at least one of the two categories (mortality or growth inhibition) at an application rate of 200 ppm: P1, P2, P3, P4, P6, P8, P9, P10, P11, P12, P13, P14 and P15.

For experiment [4], the system named is Spodoptera littoralis (Egyptian Cotton Leaf Worm). Put plainly: Example B7: Spodoptera littoralis, cotton leaf discs, L1 larvae. To be noted: foliar, 72 h, application rate of 200 ppm, 3 days after infestation. On the procedure: (§3) Cotton leaf discs were placed onto agar in 24-well microtiter plates and sprayed with aqueous test solutions prepared from 10'000 ppm DMSO stock solutions. After drying the leaf discs were infested with five L1 larvae. The samples were assessed for mortality, anti-feeding effect, and growth inhibition in comparison to untreated samples 3 days after infestation. Control of Spodoptera littoralis by a test sample is given when at least one of the categories mortality, anti-feedant effect, and growth inhibition is higher than the untreated sample.

Experiment [5] has as its system Thrips tabaci (Onion Thrips). Put plainly: Example B10: Thrips tabaci feeding/contact activity. As to conditions: 144 h, application rate of 200 ppm, 6 days after infestation. On the procedure:
Sunflower leaf discs were placed on agar in 24-well microtiter plates and sprayed with aqueous test solutions prepared from 10'000 ppm DMSO stock solutions. After drying the leaf discs were infested with a thrips population of mixed ages. The samples were assessed for mortality 6 days after infestation.

For experiment [6], the system named is Diabrotica balteata (Corn Root Worm). Put plainly: Example B13: Breakpoint (BP80) against Diabrotica balteata. To be noted: lowest concentration which gives 80% larval mortality; larval feeding/contact. On the procedure:
as §1
(§4) Insecticidal action against Diabrotica balteata (Corn root worm), Plutella xylostella (Diamond black moth), and Spodoptera littoralis (Egyptian cotton leaf worm). The tests were carried out as described in biological examples B2, B6 and B7, respectively, with the larval feeding/contact activity being reported as Breakpoint (BP80) values in parts per million (i.e. the lowest concentration which gives 80% larval mortality).

Experiment [7] deals with Plutella xylostella (Diamond black moth). Put plainly: Example B13: Breakpoint (BP80) against Plutella xylostella. To be noted: lowest concentration which gives 80% larval mortality; larval feeding/contact. How it is done:
as §2, §4

Experiment [8] deals with Spodoptera littoralis (Egyptian Cotton Leaf Worm). Put plainly: Example B13: Breakpoint (BP80) against Spodoptera littoralis. To be noted: lowest concentration which gives 80% larval mortality; larval feeding/contact. How it is done: as §3, §4
Experiment [9] has as its system Myzus persicae (Green Peach Aphid). Put plainly: Example B4: Myzus persicae feeding/contact activity. As to conditions: 144 h, application rate of 200 ppm, 6 days after infestation. On the procedure:
Sunflower leaf discs were placed onto agar in a 24-well microtiter plate and sprayed with aqueous test solutions prepared from 10'000 ppm DMSO stock solutions. After drying, the leaf discs were infested with an aphid population of mixed ages. The samples were assessed for mortality 6 days after infestation.

The test system is the same in experiment [10]. Put plainly: Example B5: Myzus persicae systemic activity. To be noted: 144 h, test rate of 24 ppm, pea seedling roots, 6 days. How it is done: Roots of pea seedlings infested with an aphid population of mixed ages were placed directly into aqueous test solutions prepared from 10'000 DMSO stock solutions. The samples were assessed for mortality 6 days after placing seedlings into test solutions.

In experiment [11] the test system is Spodoptera littoralis (Egyptian Cotton Leaf Worm). Put plainly: Example B8: Spodoptera littoralis systemic activity. To be noted: 144 h, test rate of 12.5 ppm, lettuce, 6 days after infestation, read-out: effect in at least one of the three categories (mortality, anti-feeding, or growth inhibition). An excerpt:
Test compounds were applied by pipette from 10'000 ppm DMSO stock solutions into 24-well plates and mixed with agar. Lettuce seeds were placed onto the agar and the multi well plate was closed by another plate which contained also agar. After 7 days the compound was absorbed by the roots and the lettuce grew into the lid plate. The lettuce leaves were then cut off into the lid plate. Spodoptera eggs were pipetted through a plastic stencil onto a humid gel blotting paper and the lid plate was closed with it. The samples were assessed for mortality, anti-feedant effect and growth inhibition in comparison to untreated samples 6 days after infestation. The following compounds gave an effect of at least 80% in at least one of the three categories (mortality, anti-feeding, or growth inhibition) at a test rate of 12.5 ppm: • P10, P13, P14 and P15.

Experiment [12] concerns Tetranychus urticae (Two-Spotted Spider Mite). Put plainly: Example B9: Tetranychus urticae feeding/contact activity. As to conditions: 192 h. On the procedure: Bean leaf discs on agar in 24-well microtiter plates were sprayed with aqueous test solutions prepared from 10'000 ppm DMSO stock solutions. After drying the leaf discs were infested with a mite population of mixed ages. The samples were assessed for mortality on mixed population (mobile stages) 8 days after infestation.

For experiment [13], the system named is Bemisia tabaci (Cotton White Fly). Put plainly: Example B1: Bemisia tabaci feeding/contact activity. As to conditions: 144 h, application rate of 200 ppm, adult white flies, 6 days after incubation. How it is done:
Cotton leaf discs were placed on agar in 24-well microtiter plates and sprayed with aqueous test solutions prepared from 10'000 ppm DMSO stock solutions. After drying the leaf discs were infested with adult white flies. The samples were checked for mortality 6 days after incubation.

Like-named read-outs stand apart in the source and are kept apart here.

For `CCS(=O)(=O)c1ccc(-n2ccc(C(F)(F)F)n2)nc1-c1nc2cc(C(F)(F)F)ncc2n1C` [Compound P3, 2-[3-ethylsulfonyl-6-[3-(trifluoromethyl)pyrazol-1-yl]-2-pyridyl]-3-methyl-6-(trifluoromethyl)imidazo[4,5-c]pyridine], the percent effect (mortality or growth inhibition) at 200 ppm in [1], in experiment [2] and in experiment [3] was not below 80% throughout. The molecule also returned a percent control (mortality, anti-feedant effect or growth inhibition) at 200 ppm in experiment [4] not below 80%. The molecule further registered a mortality at 200 ppm in [5] not below 80%. Also, the “BP80 Values Diabrotica balteata” value in experiment [6] came out at 0.8 ppm. Moreover, in [7], the “BP80 Values Plutella xylostella” value is 12 ppm. The “BP80 Values Spodoptera littoralis” value in experiment [8] is given as 0.8 ppm.
In the case of `CCS(=O)(=O)c1ccc(-c2ncccn2)nc1-c1nc2cc(SC(F)(F)F)ncc2n1C` [Compound P10, 2-(3-ethylsulfonyl-6-pyrimidin-2-yl-2-pyridyl)-3-methyl-6-(trifluoromethylsulfanyl)imidazo[4,5-c]pyridine], the percent effect (mortality or growth inhibition) at 200 ppm in [1], in experiment [2] and in [3] was not below 80% in each case. Moreover, the mortality at 200 ppm in experiment [9], in experiment [12] and in [5] was not below 80% in each case. The molecule further gave a mortality at 24 ppm in experiment [10] not below 80%. The same molecule returned a percent control (mortality, anti-feedant effect or growth inhibition) at 200 ppm in [4] not below 80%. Moreover, the percent effect (mortality, anti-feeding or growth inhibition) at 12.5 ppm in experiment [11] was not below 80%.
Turning to `CCS(=O)(=O)c1ccc(C2CC2)nc1-c1nc2cc(SC(F)(F)F)ncc2n1C` [Compound P13, 2-(6-cyclopropyl-3-ethylsulfonyl-2-pyridyl)-3-methyl-6-(trifluoromethylsulfanyl)imidazo[4,5-c]pyridine], the mortality at 200 ppm in [13] is not below 80%; in experiment [9] it was not below 80%; in experiment [12] (application rate of 200 ppm, mixed population (mobile stages), 8 days after infestation, read-out: mortality), not below 80%. The percent effect (mortality or growth inhibition) at 200 ppm in experiment [1], in experiment [2] and in experiment [3] was not below 80% in each case. In experiment [4], the percent control (mortality, anti-feedant effect or growth inhibition) at 200 ppm was not below 80%. Moreover, the percent effect (mortality, anti-feeding or growth inhibition) at 12.5 ppm in experiment [11] was not below 80%.
